Like-named read-outs stand apart in the source and are kept apart here. A value given as a limit tells only on which side of the number the result lay.

For series [1], the target named is T1, AhR (Mus musculus, UniProt P30561).
T1 sequence (P30561 1-848): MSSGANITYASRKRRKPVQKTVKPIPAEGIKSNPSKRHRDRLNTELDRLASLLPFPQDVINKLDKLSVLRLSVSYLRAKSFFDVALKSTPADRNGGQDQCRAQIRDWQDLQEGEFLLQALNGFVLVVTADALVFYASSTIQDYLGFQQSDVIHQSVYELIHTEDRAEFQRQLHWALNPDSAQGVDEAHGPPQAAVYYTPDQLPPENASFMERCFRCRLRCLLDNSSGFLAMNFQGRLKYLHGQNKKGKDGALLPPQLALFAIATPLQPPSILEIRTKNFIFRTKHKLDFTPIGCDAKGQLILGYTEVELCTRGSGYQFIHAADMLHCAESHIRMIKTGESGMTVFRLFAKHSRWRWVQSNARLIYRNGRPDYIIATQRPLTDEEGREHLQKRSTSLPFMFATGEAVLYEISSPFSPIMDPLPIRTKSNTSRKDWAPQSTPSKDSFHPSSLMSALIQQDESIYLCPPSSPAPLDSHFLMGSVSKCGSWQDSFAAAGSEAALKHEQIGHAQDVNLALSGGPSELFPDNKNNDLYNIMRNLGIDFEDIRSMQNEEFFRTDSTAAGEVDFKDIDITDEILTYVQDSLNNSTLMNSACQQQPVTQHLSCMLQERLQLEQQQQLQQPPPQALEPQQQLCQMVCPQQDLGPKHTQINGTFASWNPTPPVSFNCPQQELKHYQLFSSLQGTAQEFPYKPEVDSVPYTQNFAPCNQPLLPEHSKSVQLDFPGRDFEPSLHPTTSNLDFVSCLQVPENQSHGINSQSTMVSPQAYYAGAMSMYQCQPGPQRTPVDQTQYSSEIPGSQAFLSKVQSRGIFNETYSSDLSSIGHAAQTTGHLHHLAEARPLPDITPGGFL
Particulars: read-out: EC50 AhR (hepatoma cell line); Table 4; EGFP at 24 hours.

In series [2] the target is T2, AhR (Homo sapiens, UniProt P35869).
The target in the next series is GSK-3α/β. In words: GSK-3α/β kinase assay (GS-1 peptide, 15 μM ATP). The series is classed as biochemical, porcine.
Series [3] has as its target T2, AhR. The experiment in a line: Yeast AhR reporter assay (β-galactosidase). (In general: In a reporter assay the amount or activity of a reporter protein is the signal.)
For another series, the target named is CDK5/p25 (Homo sapiens, UniProt Q00535). The experiment in a line: CDK5/p25 kinase assay (histone H1, 15 μM ATP). Particulars: read-out: IC50 CDK5/p25. Format: biochemical, mammalian.
The next series addresses CDK1/cyclin B. In words: CDK1/cyclin B kinase assay (histone H1, 15 μM ATP). The series is classed as biochemical, starfish (Marthasterias glacialis).
Series [4] is described as follows: Solubility (qualitative remark). The following applies: relative to parent indirubins / 3′-oximes.
The subject of series [5] is AhR. The experiment in a line: AhR nuclear translocation in Hepa-1 and ARNT mutant cells (immunofluorescence). Format: cell-based, mouse. Particulars: 25 μM, 90 min, Hepa-1 wild-type and ARNT mutant cells.
Series [6] deals with p27^KIP1 in 5L (AhR +/+) cells. The experiment in a line: p27KIP1 expression by Western blotting, 5L cells. The following applies: 10 μM indirubins or 0.1 μM TCDD, 24 hr. Format: cell-based, mouse. For orientation: In western blotting, separated proteins are transferred to a membrane and probed.
Series [7] relates to 5L (AhR +/+) hepatoma cells. In words: FACS cell cycle analysis, 5L cells. Particulars: 10 μM indirubins or 100 nM TCDD, 24 hr. The series is classed as cell-based, mouse.
The mark [8] stands for this setting: Table 1, read-out: IC50 GSK-3 α/β.
The mark [9] stands for this setting: Table 5, read-out: IC50 GSK-3α/β.
[10] abbreviates: read-out: EC50 AhR (yeast), Table 4, * = inactive at the indicated highest concentration tested.
Where [11] appears, read: Table 4, read-out: IC50 CDK1/cycin B.
The mark [12] stands for this setting: Table 5, read-out: IC50 CDK1/cyclin B.
Setting [13] is: Table 7, GSK-3, read-out: IC50exp.

T2 sequence (P35869 11-848): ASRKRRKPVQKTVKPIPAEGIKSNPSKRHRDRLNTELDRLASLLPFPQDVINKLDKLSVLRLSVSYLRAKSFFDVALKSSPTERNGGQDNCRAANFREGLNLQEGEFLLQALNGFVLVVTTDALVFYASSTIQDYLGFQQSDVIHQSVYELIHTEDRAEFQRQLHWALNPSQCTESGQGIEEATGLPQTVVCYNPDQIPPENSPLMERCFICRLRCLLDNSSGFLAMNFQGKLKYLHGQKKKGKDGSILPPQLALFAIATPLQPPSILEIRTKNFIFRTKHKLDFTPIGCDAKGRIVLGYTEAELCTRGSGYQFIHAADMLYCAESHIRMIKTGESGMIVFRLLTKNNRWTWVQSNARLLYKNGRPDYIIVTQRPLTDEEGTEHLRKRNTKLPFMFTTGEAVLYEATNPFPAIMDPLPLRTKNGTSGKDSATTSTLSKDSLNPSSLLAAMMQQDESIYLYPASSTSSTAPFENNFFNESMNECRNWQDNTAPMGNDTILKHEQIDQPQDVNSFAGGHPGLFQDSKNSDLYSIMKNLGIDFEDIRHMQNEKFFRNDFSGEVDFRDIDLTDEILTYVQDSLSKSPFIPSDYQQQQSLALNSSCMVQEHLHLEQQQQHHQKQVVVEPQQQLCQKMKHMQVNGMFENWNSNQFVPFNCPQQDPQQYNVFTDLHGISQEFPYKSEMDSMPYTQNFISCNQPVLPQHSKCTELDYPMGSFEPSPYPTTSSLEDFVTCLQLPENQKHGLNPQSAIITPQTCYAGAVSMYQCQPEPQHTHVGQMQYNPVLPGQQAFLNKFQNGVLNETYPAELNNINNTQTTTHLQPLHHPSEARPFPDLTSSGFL
T2 sequence (P27540 whole entry partner): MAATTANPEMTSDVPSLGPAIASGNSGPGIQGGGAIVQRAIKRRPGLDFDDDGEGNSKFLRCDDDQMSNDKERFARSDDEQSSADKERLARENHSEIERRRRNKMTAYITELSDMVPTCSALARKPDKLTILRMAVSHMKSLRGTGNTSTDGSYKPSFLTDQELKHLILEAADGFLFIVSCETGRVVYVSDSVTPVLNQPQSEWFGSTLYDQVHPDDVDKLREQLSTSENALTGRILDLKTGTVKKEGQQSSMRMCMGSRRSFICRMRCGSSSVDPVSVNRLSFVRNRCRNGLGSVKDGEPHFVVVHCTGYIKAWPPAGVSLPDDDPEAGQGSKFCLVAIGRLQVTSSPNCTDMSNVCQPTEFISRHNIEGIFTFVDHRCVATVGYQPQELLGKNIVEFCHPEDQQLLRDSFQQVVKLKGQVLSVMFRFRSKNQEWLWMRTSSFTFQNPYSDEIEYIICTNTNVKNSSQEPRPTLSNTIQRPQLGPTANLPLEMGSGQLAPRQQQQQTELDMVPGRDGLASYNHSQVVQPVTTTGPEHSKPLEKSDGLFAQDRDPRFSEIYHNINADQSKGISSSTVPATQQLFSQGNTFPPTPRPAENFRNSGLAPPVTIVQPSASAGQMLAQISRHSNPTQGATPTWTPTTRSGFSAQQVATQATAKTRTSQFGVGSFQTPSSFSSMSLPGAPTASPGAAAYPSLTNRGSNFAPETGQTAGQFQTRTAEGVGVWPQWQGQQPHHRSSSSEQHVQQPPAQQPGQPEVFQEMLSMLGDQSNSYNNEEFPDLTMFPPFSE
Sequence of CDK5/p25 (Q00535 whole entry, species assumed): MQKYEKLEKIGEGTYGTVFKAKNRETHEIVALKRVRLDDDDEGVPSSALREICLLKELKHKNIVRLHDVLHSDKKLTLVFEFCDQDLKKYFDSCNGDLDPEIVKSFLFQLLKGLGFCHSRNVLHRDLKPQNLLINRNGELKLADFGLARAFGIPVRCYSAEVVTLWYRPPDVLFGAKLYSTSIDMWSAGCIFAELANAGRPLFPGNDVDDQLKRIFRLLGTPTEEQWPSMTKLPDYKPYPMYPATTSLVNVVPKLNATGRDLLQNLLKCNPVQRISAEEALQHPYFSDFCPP
Sequence of CDK5/p25 (Q15078 99-307 partner limits assumed, species assumed): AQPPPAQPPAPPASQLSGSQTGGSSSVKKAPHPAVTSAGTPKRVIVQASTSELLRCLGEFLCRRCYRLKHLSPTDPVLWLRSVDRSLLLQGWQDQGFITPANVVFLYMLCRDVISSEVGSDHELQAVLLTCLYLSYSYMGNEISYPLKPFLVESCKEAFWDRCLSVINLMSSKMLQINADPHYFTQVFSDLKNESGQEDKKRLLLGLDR

Consider `O=C1Nc2ccccc2/C1=C1/Nc2ccccc2C1=O` [5h, indirubin], for which the EC50 was determined as 59 nM at AhR [1] and 6 nM on AhR [2].
In the case of `CN1C(=O)C(=C2Nc3ccccc3C2=O)c2ccc(Br)cc21` [12c, 6-Bromo-1-methylindirubin], the IC50 was above 100000 nM at GSK-3α/β (setting [8]); above 100000 nM on GSK-3α/β (Table 4, read-out: IC50 GSK-3); above 100000 nM on GSK-3α/β (setting [9]); above 100 µM on CDK5/p25 (Table 1); above 100 µM at CDK5/p25 (Table 5); above 100 µM at CDK1/cyclin B (setting [11]). Further, the IC50 on CDK1/cyclin B (setting [12]) was above 100 µM. For the same compound, the EC50 was at least 100 nM on AhR [3] (setting [10]) and 50 nM on AhR [1].
Regarding `CN1C(=O)/C(=C2\Nc3ccccc3C2=O)c2ccccc21` [12d, 1-Methylindirubin], the IC50 on GSK-3α/β (Table 4, read-out: IC50 GSK-3) was above 100000 nM; at GSK-3α/β (setting [9]) it was above 100000 nM; at CDK5/p25 (Table 5) it was above 100 µM; on CDK1/cyclin B (setting [11]), above 100 µM; at CDK1/cyclin B (setting [12]) it was above 100 µM. In addition, the EC50 at AhR [3] (setting [10]) worked out at 6 nM; at AhR [1], 830 nM.
As to `O=C1Nc2cc(Br)ccc2C1=C1Nc2cc(Br)ccc2C1=NO` [13b, 6,6′-dibromo-indirubin-3′-oxime], the IC50 amounted to 120 nM at GSK-3α/β (setting [8]); 120 nM at GSK-3α/β (setting [9]); 120 nM at GSK-3α/β (setting [13]); 1.3 µM at CDK5/p25 (Table 1); 1.3 µM on CDK5/p25 (Table 5); 17 µM at CDK1/cyclin B (Table 1, read-out: IC50 CDK1/cyclin B). For the same compound, on CDK1/cyclin B (setting [12]), the IC50 was found to be 17 µM. The “solubility (in words)” value in series [4] is “increased solubility”.
In the case of `O=C1Nc2cccc(Cl)c2/C1=C1/Nc2ccccc2C1=O` [compound 6, 4-Chloroindirubin], the IC50 on GSK-3α/β (Table 4, read-out: IC50 GSK-3) was above 100000 nM; on GSK-3α/β (setting [9]) it was above 100000 nM; at CDK5/p25 (Table 5) it was 10 µM; on CDK1/cyclin B (setting [11]) it was 10 µM; at CDK1/cyclin B (setting [12]) it was 10 µM. The concentration giving a half-maximal response (EC50) at AhR [3] (setting [10]) is above 100 nM; at AhR [1], 310 nM.
For `Cc1ccc2c(c1)/C(=C1/Nc3ccccc3C1=O)C(=O)N2` [compound 15, 5-methyl-indirubin, reference compound], the IC50 at GSK-3α/β (Table 4, read-out: IC50 GSK-3) worked out at 62 nM; on GSK-3α/β (setting [13]) it was 62 nM; at CDK1/cyclin B (read-out: IC50 CDK1/cycin B), 0.28 µM. In addition, the EC50 at AhR [1] was found to be 25 nM; at AhR [2], 40 nM.
For `O=C1Nc2ccc(Br)cc2/C1=C1/Nc2ccccc2C1=O` [compound 16, 5-bromo-indirubin, reference compound], the IC50 at GSK-3α/β (Table 4, read-out: IC50 GSK-3) came out at 55 nM; at GSK-3α/β (setting [13]), 55 nM; on CDK1/cyclin B (setting [11]) it was 0.23 µM. Further, the EC50 at AhR [1] is 7 nM; at AhR [2] it was 35 nM.
`O=C1Nc2ccc(Cl)cc2/C1=C1/Nc2ccccc2C1=O` [compound 17, 5-chloro-indirubin, reference compound]: the IC50 at GSK-3α/β (Table 4, read-out: IC50 GSK-3) was determined as 50 nM; at GSK-3α/β (setting [13]) it was 50 nM; at CDK1/cyclin B (setting [11]), 0.28 µM. For the same compound, the EC50 on AhR [1] was 52 nM; at AhR [2], 40 nM.
Consider `O=C1Nc2ccc(I)cc2/C1=C1/Nc2ccccc2C1=O` [compound 18, 5-iodo-indirubin, reference compound], for which the IC50 on CDK1/cyclin B (setting [11]) was 0.22 µM. In addition, at AhR [2], the response was half-maximal at 30 nM (EC50).
As for `O=C1Nc2ccc(I)cc2/C1=C1/Nc2ccccc2/C1=N\O` [compound 19, 5-iodo-indirubin-3′-oxime, reference compound], the “nuclear translocation of AhR” value in the series on AhR [5] is on record as “triggered ARNT-independent nuclear redistribution of AhR”. The EC50 amounted to 5 nM at AhR [1] and 50 nM at AhR [2]. The IC50 on CDK1/cyclin B (setting [11]) was determined as 0.025 µM.
As for `O=C1Nc2ccccc2/C1=C1/Nc2ccc(Br)cc2C1=O` [compound 20, 5′-bromo-indirubin, reference compound], the IC50 at GSK-3α/β (Table 4, read-out: IC50 GSK-3) amounted to 350 nM; on GSK-3α/β (setting [13]), 350 nM; on CDK1/cyclin B (setting [11]), 0.51 µM. In addition, the results for the EC50 at AhR [1] and on AhR [2] were 51 nM and at least 100 nM, respectively.
Consider `O=C1Nc2ccc(Br)cc2/C1=C1/Nc2ccc(Br)cc2C1=O` [compound 21, 5,5′-dibromo-indirubin, reference compound], for which the IC50 on GSK-3α/β (Table 4, read-out: IC50 GSK-3) is 250 nM; at GSK-3α/β (setting [13]), 250 nM; on CDK1/cyclin B (setting [11]), 600 µM. The EC50 on AhR [1] is 47 nM; on AhR [2], above 200 nM.
As to `Clc1cc2c(cc1Cl)Oc1cc(Cl)c(Cl)cc1O2` [compound 25, 2,3,7,8-tetrachlorodibenzo-p-dioxin, reference compound], the IC50 on GSK-3α/β (Table 4, read-out: IC50 GSK-3) was above 15000 nM; on CDK1/cyclin B (setting [11]), above 15 µM. Besides, the figures for the EC50 on AhR [3] and at AhR [1] were 25 nM and 0.015 nM, respectively. Also, the “p27^KIP1 expression in 5L cells” value in series [6] is “up-regulates the expression of both CYP1A1 and p27^KIP1 in the 5L”. In addition, in series [7], the “accumulation of 5L cells in G1 phase” value is recorded as “triggered an AhR-dependent arrest in G1”.

One may read the EC50 as the concentration at which the effect is half-maximal.
